For assay [1], the system named is E. coli 2051. As to the kind of experiment: Antibiotic diffusion assay, levofloxacin plate versus water control plate. The class given is cell-based, Escherichia coli. Particulars: zone of inhibition in levofloxacin (15 mcg/ml) plate minus water control plate; Mueller Hinton Agar, 35° C. 20 hours. On the procedure: (§1) Testing method for Inhibition of the Efflux Pumps of Pseudomonas aeruzinosa 23587, E. coli 2051, Streptococcus pneumoniae 3514 and Streptococcus pyozenus 26-00
The activity of an efflux pump inhibitor of E. coli 2051 was also assessed using an antibiotic diffusion assay. For this assay E. coli 2051 is used. E. coli 2051 is a clinical isolate containing multiple efflux pumps. E. coli 2051 are grown in tryptic soya broth for 20 hours at 35° C. Two antibiotic assay plates are prepared in Mueller Hinton Agar using above inoculum. The bacterial count in a plate is 1×10^6 cells/ml. In one of the plates, levofloxacin is incorporated at 15 mcg/ml, while in the control plate an equivalent amount of water is added. […]. The plates are incubated at 35° C. for 20 hours and the zone of inhibition was recorded in mm (table 3) . The difference in the diameter of zone of inhibition was calculated by subtracting from the zone of inhibition in the levofloxacin containing plate the diameter of the zone of inhibition in the control plate.

Assay [2] deals with Pseudomonas aeruginosa 23587. The description is as above. The class given is cell-based. Particulars: zone of inhibition in levofloxacin (5 mcg/ml) plate minus water control plate; Mueller Hinton Agar, 35° C. 20 hours. On the procedure: as §1
Antibiotic Diffusion Assay
The activity of efflux pump inhibitor was also assessed using an antibiotic diffusion assay. For this assay Pseudomonas aeruginosa 23587 is used. Pseudomonas aeruginosa 23587 is a clinical isolate containing multiple efflux pumps which can be mexAB, mexCD, mexEF but not limited to mex classification only. Pseudomonas aeruginosa are grown in tryptic soya broth for 20 hours at 35° C. Two antibiotic assay plates are prepared in Mueller Hinton Agar using above inoculum. The bacterial count in a plate is 1×10^6 cells/ml. In one of the plates, levofloxacin is incorporated at 5 mcg/ml, while in the control plate an equivalent amount of water is added. […]. The plates are incubated at 35° C. for 20 hours and the zone of inhibition was recorded in mm (table 2). The difference in the diameter of zone of inhibition was calculated by subtracting from the diameter of the zone of inhibition in the levofloxacin containing plate the diameter of the zone of inhibition in the water containing control plate. Example, if the diameter of the zone of inhibition in the levofloxacin plate is X mm and the diameter of the zone of inhibition in the control plate is Y mm, the difference Z=X−Y and is a measure of the activity of the efflux pump inhibitor.

The test system of assay [3] is Staphylococcus aureus 1199 B NorA+. It counts as cell-based. Particulars: combination with ciprofloxacin, broth microdilution checkerboard, 35° C. 20 hours; FIC index ≦0.5 synergistic, 0.5–2.0 additive, >2.0 antagonistic. The method, boiled down: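 Broth microdilution checkerboard with ciprofloxacin against S. aureus 1199B NorA+, pump inhibitor titrated along one axis; inoculum 5×10^5 CFU/ml in Mueller Hinton broth, 35 °C for 20 hours. Growth read by visible turbidity, confirmed by plate reader; FIC index derived from inhibitor MIC in combination versus alone.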
For orientation: Broth dilution looks for growth in wells or tubes with falling amounts of substance.

The test system of assay [4] is Mef Efflux Pump of Streptococcus pneumoniae 3514 and Streptococcus pyogenes 26-00. As to the kind of experiment: Two plate diffusion assay for macrolide (Mef) efflux pump inhibitors, azithromycin plate versus control plate. It counts as cell-based. Particulars: zone of inhibition in antibiotic plate (method: azithromycin 0.5 mcg/ml; footnote: levofloxacin) minus water control plate; strain not given.

Here are results for 18 molecules from patent US7098219B2, “Inhibitors of cellular efflux pumps of microbes” (Wockhart Limited, priority 2000, dated 2006).

As for “(R)-(+)-9,8-fluoro-8-fluoro-6,7-dihydro-5-methyl-1-oxo-1H,5H-benzo[i,j]quinolizine-2-carboxylate Methoxy phe-lys-OMe [Example 32 (P. aeruginosa)]”, the “Difference in Zone diameter Z1 (mm)” value in assay [1] came out at 11 mm; in assay [2], 8 mm.
The corresponding values for `Cc1c(F)c(Br)cc2c1c(=O)c(C(=O)O)cn2C1CC1` [Example 2 (P. aeruginosa), 7-Bromo-1-cyclopropyl-6-fluoro-5-methyl-1l 4-dihydro-4-oxo-quinoline-3-carboxylic acid] are 9 mm and 1 mm.
“(S)-(−)-Morpholinoethyl-9-fluoro-6,7-dihydro-8-(4′-hydroxypiperidin-1-yl)-5-methyl-1-oxo-1H,5H-benzo[i,j]quinolizine-2-carboxylic acid [Example 58 (NorA)]”: the figures for the “Difference in Zone diameter Z1 (mm)” value in assay [1] and in assay [2] were 8 mm and 2 mm, respectively. The “FIC INDEX” value in assay [3] turned out to be 0.370.
As for `COc1c(N2CCC(N)C(C)C2)c(F)cc2c(=O)c(C(=O)O)cn(C3CC3)c12` (centres unmarked) [Example 3 (P. aeruginosa), 1-Cyclopropyl-6-fluoro-8-methoxy-1,4-dihydro-7-(4′-amino-3′-methylpiperidin-1-yl)-4-oxo-quinoline-3-carboxylic acid], the “Difference in Zone diameter Z1 (mm)” value in assay [1] is on record as 10 mm; in assay [4], 26 mm; in assay [2], 7 mm.
For `CCC1CN(c2c(F)cc3c(=O)c(C(=O)O)cn4c3c2OCC4C)CCC1O` (centres unmarked) [Example 36 (P. aeruginosa), 7H-Pyrido[1,2,3-de]-1,4-benzoxazine-9-fluoro-2,3-dihydro-3-methyl-10-(4′-hydroxy-3′-ethylpiperidin-1′-yl)-7-oxo-6-carboxylic acid], the “Difference in Zone diameter Z1 (mm)” value in assay [4] and in assay [2] was 5 mm throughout.
`CCn1cc(C(=O)O)c(=O)c2cc(F)c(N3CC4C(N)C4C3)c(F)c21` (centres unmarked) [Example 4 (NorA), 1-Ethyl-6,8-difluoro-1,4-dihydro-7-{(1∝,5∝,6∝)-6-amino-3-azabicyclo[3.1.01]-hex-3-yl}-4-oxo-quinoline-3-carboxylic acid]: the “FIC INDEX” value in assay [3] was 0.192. The “Difference in Zone diameter Z1 (mm)” value in assay [2] was 7 mm.
Turning to “S-(-9-Fluoro-6,7-dihydro-8-(4′-hydroxypiperidin-1-yl)-5-methyl-1-oxo-1H,5H-benzo[i,j]quinolizine-2-carboxylic acid, 1-hydroxyethylpyrrolidine salt [Example 23 (P. aeruginosa)]”, the “Difference in Zone diameter Z1 (mm)” value worked out at 11 mm in assay [1] and 3 mm in assay [2].
Turning to `CCN1C(C)CN(c2cc3c(cc2F)c(=O)c(C(=O)O)cn3C2CC2)CC1C` (centres unmarked) [Example 16 (NorA), 1-Cyclopropyl-6-fluoro-1,4-dihydro-7-(3′,5′-dimethyl-4′-ethylpiperazin-1-yl)-4-oxo-quinoline-3-carboxylic acid], the “FIC INDEX” value in assay [3] is recorded as 0.314. The “Difference in Zone diameter Z1 (mm)” value in assay [2] is given as 8 mm.
Regarding `C[C@@H]1CN(c2c(F)cc3c(=O)c(C(=O)O)cn4c3c2CC[C@@H]4C)CC[C@H]1O` (relative stereo) [Example 35 (P. aeruginosa), S-(−)-9-Fluoro-6,7-dihydro-8-(trans-4′-hydroxy-3′-methylpiperidin-1-yl]-5-methyl-1H,5H-benzo[i,j]quinolizine-2-carboxylic acid], the “Difference in Zone diameter Z1 (mm)” value in assay [1] and in assay [2] was 8 mm throughout.
`COc1c(N2CCC(N)C(C)(C)C2)c(F)cc2c(=O)c(C(=O)O)cn(C3CC3)c12` (centres unmarked) [Example 6 (P. aeruginosa), 1-Cyclopropyl-6-fluoro-8-methoxy-1,4-dihydro-7-(4′-amino-3′-3′-dimethylpiperidin-1-yl)-4-oxo-quinoline-3-carboxylic acid]: the figures for the “Difference in Zone diameter Z1 (mm)” value in assay [1] and in assay [2] were 11 mm and 12 mm, respectively.
For the molecule `Cc1c(F)c(N2CCC(O)C(CN)C2)c(F)c2c1c(=O)c(C(=O)O)cn2C1CC1` (centres unmarked) [Example 25 (NorA), 1-Cyclopropyl-6,8-difluoro-5-methyl-1,4-dihydro-7-(4′-hydroxy-3′-aminomethylpiperidin-1-yl)-4-oxo-quinoline-3-carboxylic acid], the “FIC INDEX” value in assay [3] was determined as 0.192. In assay [2], the “Difference in Zone diameter Z1 (mm)” value turned out to be 5 mm.
The matching figures for `O=C(O)c1cn(C2CC2)c2nc(NC3CCNC3)c(F)cc2c1=O` (centres unmarked) [Example 49 (NorA), 1-Cyclopropyl-6-fluoro-1,4-dihydro-7-(pyrrolidin-3-yl-amino)-4-oxo-1,8naphthyridine-3-carboxylic acid]: 0.188 and 6 mm.
Consider “10-Fluoro-11-[(1∝,5∝,6∝)-6-amino-3-azabicyclo[3.1.01]hex-3yl]-3,4-dihydro-4(S)-methyl-8-oxo-2H,8H-pyrido[1,2,3-ef]-1,5-benzoxazipin-7-carboxylic acid. HCl [Example 37 (P. aeruginosa)]”, for which the entries for the “Difference in Zone diameter Z1 (mm)” value in assay [1] and in assay [2] were 5 mm and 2 mm, respectively.
Consider `CC1CCc2c(N3CCC(OC(=O)[C@@H](N)CC(=O)O)CC3)c(F)cc3c(=O)c(C(=O)O)cn1c23.Cl` (mixture of isomers) [Example 27 (P. aeruginosa), (RS)-(±)-9-Fluoro-6,7-dihydro-8-4′-(L-ot-aspartyloxy)piperidin-1-yl]-5-methyl-1-oxo-1H,5H-benzo[i,j]quinolizine-2-carboxylic acid hydrochloride], for which the “Difference in Zone diameter Z1 (mm)” value in assay [4] is 6 mm; in assay [2] it was 11 mm.
As for `CC(C)C[C@@H](N)C(=O)OC1CCN(c2c(F)cc3c(=O)c(C(=O)O)cn4c3c2CC[C@@H]4C)CC1.Cl` [Example 29 (P. aeruginosa), (S)-(−)-9-Fluoro-6,7-dihydro-8-{4′-(D-leucyloxy)piperidin-1-yl}-5-methyl-1-oxo-1H,5H-benzo[i,j]quinolizine-2-carboxylic acid hydrochloride], the results for the “Difference in Zone diameter Z1 (mm)” value in assay [1] and in assay [2] were 18 mm and 12 mm, respectively.
With `C[C@H]1CCc2c(N3CCC(O)CC3)c(F)cc3c(=O)c(C(=O)O)cn1c23` [Example 21 (P. aeruginosa), S-(−)-9-Fluoro-6,7-dihydro-8-(4′-hydroxypiperidin-1-yl)-5-methyl-1-oxo-1H,5H-benzo[i,j]quinolizine-2-carboxylic acid 0.2 hydrate], the “Difference in Zone diameter Z1 (mm)” value is on record as 9 mm in assay [1] and 5 mm in assay [2].
In the case of `C[C@H]1CCc2c(N3CCC(O)CC3)c(F)cc3c(=O)c(C(=O)O)cn1c23.OCCNCCO` [Example 24 (P. aeruginosa), S-(−)-9-Fluoro-6,7-dihydro-8-(4′-hydroxypiperidin-1-yl)-5-methyl-1-oxo-1H,5H-benzo[i,j]quinolizine-2-carboxylic acid, diethanolamine salt], the entries for the “Difference in Zone diameter Z1 (mm)” value in assay [1] and in assay [2] were 11 mm and 4 mm, respectively.
For the molecule `C[C@H]1CCc2c(N3CCC(O)CC3)c(F)cc3c(=O)c(C(=O)[O-])cn1c23.C[N+](C)(C)CCO` [Example 22 (P. aeruginosa), S-(−)-9-Fluoro-6,7-dihydro-8-(4′-hydroxypiperidin-1-yl)-5-methyl-1-oxo-1H,5H-benzo[i,j]quinolizine-2-carboxylic acid, choline salt], the “Difference in Zone diameter Z1 (mm)” value was 9 mm in assay [1] and 3 mm in assay [2].
